Test results from patent US20240165273A1, “SELF-ASSEMBLING MOLECULES ENABLING HIGH PERFORMANCE IN VIVO IMAGING IN THE SECOND NEAR INFRARED (NIR-II) WINDOW” (Baylor College of Medicine, priority 2022, published 2024).
“Also recorded” adds a separate entry of the source.

Key:
HPV-positive mEER tumor = test: In vivo NIR-II tumor imaging, mEER tumor model; set-up: species or system mouse; conditions: mEER tumor bearing mice, i.v., 5 mg/kg or similar dose
Text: (§1) Applicants hypothesized that intravenous administration of NIR-II dyes such as XW-03-66, has the potential to accumulate in these tumors via the EPR effect, thus enabling NIR-II image-guided intraoperative resection with improved adequate margin delineation. To test this hypothesis, two different syngeneic murine models of head and neck squamous cell carcinoma were used: (1) the human papillomavirus (HPV)-positive mEER tumor model, featuring murine pharyngeal epithelial cells transformed with HPV16 E6 and E7 oncogenes and H-ras, and (2) HPV-ve, the carcinogen induced Mouse Oral Cancer 2 (MOC2) tumor model.
(§2) Test mice (n=4 for each model) were first subjected to preoperative MRI scans to establish presence of the tumor. Following MRI confirmation, tumor-bearing mice were administered XW-03-66 (dose=5 mg/kg) by tail vein injection. For comparison, a similar number of mice with MRI-confirmed tumors were injected with clinically approved ICG at a similar dose. To monitor dynamics of tumor uptake, NIR-II images were collected at different time intervals over a period of seven days.

[1] = tested on: Mouse Oral Cancer 2 (MOC2) tumor; test: In vivo NIR-II tumor imaging, MOC2 tumor model
Text: as §1, §2

[2] = in PBS; cited from earlier work
serum albumin = serum albumin (Homo sapiens, UniProt P02768); conditions: binding with serum albumin in solution; cited from earlier work
[3] = Photostability under continuous laser excitation in PBS and bovine plasma; assay type: physicochemical
[4] = Optical properties (absorption, emission, quantum yield, solution) in PBS; assay type: physicochemical; conditions: PBS (50 μM)
[5] = in 20 minutes post-intravenous injection; cited from earlier work

serum albumin, sequence (P02768 25-609): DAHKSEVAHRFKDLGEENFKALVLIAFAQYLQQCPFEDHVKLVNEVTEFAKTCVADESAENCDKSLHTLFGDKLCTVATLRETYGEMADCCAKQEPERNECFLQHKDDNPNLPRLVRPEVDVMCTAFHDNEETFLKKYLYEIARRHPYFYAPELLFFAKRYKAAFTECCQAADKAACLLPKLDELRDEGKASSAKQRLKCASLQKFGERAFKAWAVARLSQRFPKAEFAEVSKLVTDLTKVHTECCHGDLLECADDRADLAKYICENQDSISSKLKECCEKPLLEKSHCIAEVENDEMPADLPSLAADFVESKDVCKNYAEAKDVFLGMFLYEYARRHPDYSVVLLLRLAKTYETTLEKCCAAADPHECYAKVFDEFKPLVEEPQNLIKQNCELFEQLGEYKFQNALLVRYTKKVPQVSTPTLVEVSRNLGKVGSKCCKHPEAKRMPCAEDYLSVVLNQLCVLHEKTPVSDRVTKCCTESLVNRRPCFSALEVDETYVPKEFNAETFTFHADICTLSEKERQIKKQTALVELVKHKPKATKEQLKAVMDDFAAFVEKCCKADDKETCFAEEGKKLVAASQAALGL

For CC1(C)C(/C=C/C=C/C=C/C=C2\N(CCCCS(=O)(=O)O)c3ccc4ccccc4c3C2(C)C)=[N+](CCCCS(=O)(=O)[O-])c2ccc3ccccc3c21 [ICG, indocyanine green], the NIR-II tumor signal (HPV-positive mEER tumor) was “no signal uptake in either tumor model; also recorded: faint tumor signals at 1-2 h, and no apparent signal thereafter”, the NIR-II tumor signal ([1]; MOC2 tumor bearing mice, i.v., 5 mg/kg or similar dose, 5 mg/kg) was “no signal uptake in either tumor model; also recorded: faint tumor signal at 1-2 h, and no apparent signal thereafter” and the liver signal ([1]; tumor-bearing mice, model not distinguished) was “observed in the liver in images captured within the first four hours, but completely disappeared thereafter”. The “NIR-II QY” value [2] was 0.042%, the “factor of fluorescence increase compared to solution in PBS” value (serum albumin) was 23 and the “time of drop in fluorescence to baseline” value [3] was ≤ 30 min. The “dissolution in PBS” value [4] was “dissolve in PBS resulting in clear solutions” and the “fraction removed from circulation via the liver” value [5] was 97%.
